Drawing on patent US9926294B2, “Pesticidally active heterocyclic derivatives with sulphur containing substituents” (Syngenta Participations AG, priority 2014, dated 2018), this text covers mortality for 29 molecules.

Format in all cases: in vivo
In experiment [1] the test system is Myzus persicae (green peach aphid). Kind of experiment: Example B5: Myzus persicae feeding/residual contact, preventive, mixed population (sunflower leaf discs). The note with it: foliar, 144 h, mixed population on sprayed sunflower leaf discs, 6 DAT, read-out: activity (mortality, special effects). Here is the method: Example B5: Activity Against Myzus persicae (Green Peach Aphid)
(Feeding/Residual Contact Activity, Preventive), Mixed Population
Sunflower leaf discs were placed on agar in a 24-well microtiter plate and sprayed with test solutions. After drying, the leaf discs were infested with an aphid population of mixed ages. After an incubation period of 6 DAT, samples were checked for mortality and special effects (e.g. phytotoxicity).

For experiment [2] the test system is unchanged. Kind of experiment: Example B7: Myzus persicae systemic/feeding activity, curative, mixed population (pea seedlings). The note with it: 144 h, roots of infested pea seedlings in test solution, 6 days after introduction, read-out: activity (mortality, special effects on the plant). From the text:
Example B7: Activity Against Myzus persicae (Green Peach Aphid)
(Systemic/Feeding Activity, Curative), Mixed Population
Roots of pea seedlings, infested with an aphid population of mixed ages, were placed directly in the test solutions. 6 days after introduction, samples were checked for mortality and special effects on the plant.

In experiment [3] the test system is Diabrotica balteata (corn root worm). Briefly: Example B4: Diabrotica balteata larvae L2 on maize sprouts, feeding/contact, preventative. The note with it: 120 h, L2 larvae on sprayed maize sprouts, 5 days incubation, read-out: activity (larval mortality, growth regulation). Here is the method:
Example B4: Activity Against Diabrotica Balteata (Corn Root Worm)
(Larvae L2 on Maize Sprouts, Feeding/Contact, Preventative)
Maize sprouts, placed on an agar layer in 24 well micro titer plates were treated with test solutions by spraying. After drying, the MTPs were infested with L2 larvae (6-10 per well). After an incubation period of 5 days, samples were checked for larval mortality and growth regulation.

The test system of experiment [4] is Spodoptera littoralis (Egyptian cotton leaf worm). Briefly: Example B1: Spodoptera littoralis larvicide, feeding/residual contact, preventive (cotton leaf discs). To be noted: foliar, 72 h, L1 larvae on sprayed cotton leaf discs, 3 days after treatment, read-out: activity (mortality, repellent effect, feeding behaviour, growth regulation). The text has this:
Example B1: Activity Against Spodoptera littoralis (Egyptian Cotton Leaf Worm)
Larvicide, Feeding/Residual Contact Activity, Preventive
Cotton leaf discs were placed on agar in a 24-well microtiter plate and sprayed with test solutions.
After drying, the leaf discs were infested with 5 L1 larvae. The samples were checked for mortality, repellent effect, feeding behaviour, and growth regulation 3 days after treatment (DAT).

Experiment [5] has as its system Myzus persicae (green peach aphid). Briefly: Example B6: Myzus persicae feeding activity sachet test, mixed population. To be noted: 120 h, sachet test in sucrose solution, 5 days after infestation. The text has this: Example B6: Activity Against Myzus persicae (Green Peach Aphid)
(Feeding Activity Sachet Test), Mixed Population
Test compounds were applied by pipette into 24 well plates and mixed with Sucrose solution. The plates were closed with a stretched Parafilm. A plastic stencil with 24 holes is placed onto the plate and infested pea seedlings were placed directly on the Parafilm. The infested plate is closed with a gel blotting paper and another plastic stencil and then turned upside down. 5 days after infestation the samples were checked on mortality. Application rate: 12.5 ppm.

Experiment [6] relates to Plutella xylostella (diamond back moth). Briefly: Example B3: Plutella xylostella larvicide, feeding/residual contact, preventive (artificial diet). To be noted: 120 h, L2 larvae on artificial diet, 5 days incubation, read-out: activity (larval mortality, antifeedant, growth regulation). Here is the method: Example B3: Activity Against Plutella xylostella (Diamond Back Moth)
(Larvicide, Feeding/Residual Contact Activity, Preventive)
24-well microtiter plate (MTP) with artificial diet was treated with test solutions by pipetting. After drying, the MTPs were infested with L2 larvae (10-15 per well). After an incubation period of 5 days, samples were checked for larval mortality, antifeedant and growth regulation.

Experiment [7] concerns Bemisia tabaci (cotton white fly). Briefly: Example B9: Bemisia tabaci adulticide contact activity, preventative. To be noted: foliar, 168 h, adult white flies on sprayed cotton leaf discs, 7 DAT, read-out: activity (mortality, special effects). On the procedure:
Example B9: Activity Against Bemisia tabaci (Cotton White Fly)
(Adulticide Contact Activity, Preventative), Adult
Cotton leaf discs were placed on agar in a 24-well microtiter plate and sprayed with test solutions. After drying, the leaf discs were infested with adult white flies. After an incubation period of 7 DAT, samples were checked for mortality and special effects (e.g. phytotoxicity).

In experiment [8] the test system is Spodoptera littoralis (Egyptian cotton leaf worm). Briefly: Example B2: Spodoptera littoralis systemic activity (lettuce on agar). To be noted: 120 h, systemic via lettuce roots, 5 days after infestation, read-out: activity (mortality, repellent effect, feeding behavior, growth regulation). The text has this: Example B2: Activity Against Spodoptera littoralis (Egyptian Cotton Leaf Worm)
Test compounds were applied by pipette into 24 well plates and mixed with agar. Lettuce seeds were placed on the agar and the multi well plate is closed by another plate which contains also agar. After 7 days the roots have absorbed the compound and the lettuce has grown into the lid plate. The lettuce leaves were now cut off into the lid plate. Spodoptera eggs were pipetted through a plastic stencil on a humid gel blotting paper and the plate closed with it. The samples are checked for mortality, repellent effect, feeding behavior, and growth regulation 5 days after infestation.

For orientation: mortality means the percentage killed.

Each structure is given as a SMILES string.

In the case of `CCS(=O)(=O)c1cc(C(F)(F)F)cnc1-c1nnc(-c2cc(C(F)(F)F)ccc2F)n1C` [Compound P19], in experiment [1], the mortality at 400 ppm is above 80%.

Consider `CCS(=O)(=O)c1cc(C(F)(F)F)ccc1-c1nnc(-c2ccc(C(F)(F)F)nc2)n1C` [Compound P55], for which the mortality at 24 ppm in experiment [2] was at least 80%. Besides, the mortality at 400 ppm in experiment [1] and in experiment [3] was above 80% throughout.

On to `CCS(=O)(=O)c1cc(C(F)(F)F)cnc1-c1nnc(-c2cccc(OC(F)(F)F)c2)n1C` [Compound P20], for which the mortality at 400 ppm in experiment [4], in experiment [1] and in experiment [3] was above 80% in each case. In experiment [5], the mortality at 12.5 ppm was at least 80%.

With `CCS(=O)(=O)c1cc(C(F)(F)F)cnc1-c1nnc(-c2cccc3c2OC(F)(F)O3)n1C` [Compound P30], the mortality at 12.5 ppm in experiment [5] is at least 80%. In addition, in experiment [1], the mortality at 400 ppm was above 80%.

Take `CSc1cc(C(F)(F)F)cnc1-c1nnc(-c2cc(C(F)(F)F)ccn2)n1C` [Compound P70]: the mortality at 400 ppm in experiment [3] is above 80%.

Turning to `CCS(=O)(=O)c1cc(C(F)(F)F)cnc1-c1nnc(-c2cccc(C(F)(F)Cl)c2)n1C` [Compound P24], the mortality at 400 ppm in experiment [6], in experiment [4], in experiment [1] and in experiment [3] was above 80% throughout. In addition, the mortality at 12.5 ppm in experiment [5] was at least 80%.

In the case of `CCS(=O)(=O)c1cc(OC(F)F)cnc1-c1nnc(-c2ccc(C(F)(F)F)nc2)n1C` [Compound P58], the mortality at 400 ppm in experiment [7] and in experiment [1] was above 80% each time. In experiment [2], the mortality at 24 ppm is at least 80%.

In the case of `CCS(=O)(=O)c1cc(C(F)(F)F)cnc1-c1nnc(-c2ccc(C#N)cc2)n1C` [Compound P35], the mortality at 24 ppm in experiment [2] was at least 80%. In addition, the mortality at 400 ppm in experiment [3] is above 80%.

With `CCSc1cc(C(F)(F)F)cnc1-c1nnc(-c2cccc(C(F)(F)F)n2)n1C` [Compound P49], in experiment [7], the mortality at 400 ppm was above 80%.

As for `Cn1c(-c2cc(C(F)(F)F)ccn2)nnc1-c1ncc(C(F)(F)F)cc1S(C)(=O)=O` [Compound P71], the mortality at 400 ppm in experiment [6], in experiment [4], in experiment [1] and in experiment [3] was above 80% each time. The mortality at 24 ppm in experiment [2] is at least 80%.

With `CCS(=O)(=O)c1cc(C(F)(F)F)cnc1-c1nnc(-c2ccc(Cl)c(F)c2)n1C` [Compound P22], the mortality at 400 ppm in experiment [4], in experiment [1] and in experiment [3] was above 80% in each case. Moreover, the mortality at 12.5 ppm in experiment [5] is at least 80%.

On to `CCS(=O)(=O)c1cc(C(F)(F)F)cnc1-c1nnc(-c2cc(C(F)(F)F)cc(C(F)(F)F)c2)n1C` [Compound P12], for which the mortality at 400 ppm in experiment [6] and in experiment [4] was above 80% throughout.

As to `CCS(=O)(=O)c1cc(C(F)(F)F)cnc1-c1nnc(-c2ccc(Cl)c(Cl)c2)n1C` [Compound P46], the mortality at 400 ppm in experiment [4], in experiment [1] and in experiment [3] was above 80% throughout.

In the case of `CCSc1cc(C(F)(F)F)ccc1-c1nnc(-c2ccc(C(F)(F)F)nc2)n1C` [Compound P54], the mortality at 400 ppm in experiment [3] was above 80%.

Consider `CCS(=O)(=O)c1cc(C(F)(F)F)cnc1-c1nnc(-c2ccc(OC(F)(F)F)cc2)n1C` [Compound P33], for which the mortality at 400 ppm in experiment [6], in experiment [4] and in experiment [1] was above 80% in each case. Further, the mortality at 12.5 ppm in experiment [5] and in experiment [8] was at least 80% each time.

Regarding `CCS(=O)(=O)c1cc(C(F)(F)F)cnc1-c1nnc(-c2ccc(C(F)(F)F)c(C(F)(F)F)c2)n1C` [Compound P61, 2-[5-[3,4-bis(trifluoromethyl)phenyl]-4-methyl-1,2,4-triazol-3-yl]-3-ethylsulfonyl-5-(trifluoromethyl)pyridine], the mortality at 400 ppm in experiment [7], in experiment [6], in experiment [4], in experiment [1] and in experiment [3] was above 80% throughout.

With `CCS(=O)(=O)c1cc(C(F)(F)F)cnc1-c1nnc(-c2ccc(C(F)(F)F)cn2)n1C` [Compound P10], the mortality at 400 ppm in experiment [4] and in experiment [3] was above 80% throughout.

On to `CCS(=O)(=O)c1cc(C(F)(F)F)cnc1-c1nnc(-c2cc(Cl)cc(Cl)c2)n1C` [Compound P16], for which the mortality at 400 ppm in experiment [4], in experiment [1] and in experiment [3] was above 80% in each case.

For the molecule `CCS(=O)(=O)c1cc(C(F)(F)F)cnc1-c1nnc(-c2cccc(C(F)(F)F)c2)n1C` [Compound P7], the mortality at 400 ppm in experiment [7], in experiment [6], in experiment [4], in experiment [1] and in experiment [3] was above 80% each time. Further, in experiment [2], the mortality at 24 ppm is at least 80%. For the same molecule, the mortality at 12.5 ppm in experiment [5] and in experiment [8] was at least 80% in each case.

On to `CCS(=O)(=O)c1cc(C(F)(F)F)cnc1-c1nnc(-c2ccc(C(F)F)cc2)n1C` [Compound P53], for which the mortality at 400 ppm in experiment [1] is above 80%.

Turning to `CCS(=O)(=O)c1cc(C(F)(F)F)cnc1-c1nnc(-c2cc(C(F)(F)F)cc(Cl)n2)n1C` [Compound P63], the mortality at 400 ppm in experiment [4] and in experiment [3] was above 80% throughout.

As for `CCS(=O)(=O)c1cc(C(F)(F)F)cnc1-c1nnc(-c2ccc(C(F)(F)F)cc2)n1C` [Compound P5], the mortality at 400 ppm in experiment [6], in experiment [4] and in experiment [3] was above 80% in each case. In addition, the mortality at 12.5 ppm in experiment [8] is at least 80%.

For the molecule `CCS(=O)(=O)c1cc(C(F)(F)F)cnc1-c1nnc(-c2cccc(C#N)c2)n1C` [Compound P34], in experiment [2], the mortality at 24 ppm was at least 80%. Besides, the mortality at 400 ppm in experiment [1] was above 80%.

With `CCS(=O)(=O)c1cc(C(F)(F)F)cnc1-c1nnc(-c2ccc(F)c(Cl)c2)n1C` [Compound P15], the mortality at 400 ppm in experiment [4], in experiment [1] and in experiment [3] was above 80% in each case. The molecule also came in with a mortality at 12.5 ppm in experiment [5] of at least 80%.

As for `CCS(=O)(=O)c1cc(C(F)(F)F)cnc1-c1nnc(-c2ccc(C(F)(C(F)(F)F)C(F)(F)F)cc2)n1C` [Compound P21], the mortality at 400 ppm in experiment [4] and in experiment [3] was above 80% throughout.

On to `CCS(=O)(=O)c1cc(C(F)(F)F)cnc1-c1nnc(-c2ccc3c(c2)OC(F)(F)O3)n1C` [Compound P56], for which the mortality at 400 ppm in experiment [4] and in experiment [3] was above 80% throughout.

For `CCS(=O)(=O)c1cc(OC(F)F)cnc1-c1nnc(-c2cc(C(F)(F)F)ccn2)n1C` [Compound P66], the mortality at 400 ppm in experiment [6], in experiment [4], in experiment [1] and in experiment [3] was above 80% each time. The mortality at 24 ppm in experiment [2] was at least 80%. For the same molecule, in experiment [8], the mortality at 12.5 ppm is at least 80%.

For `CCS(=O)(=O)c1cc(C(F)(F)F)cnc1-c1nnc(-c2ccnc(C(F)(F)F)c2)n1C` [Compound P8], the mortality at 400 ppm in experiment [7] and in experiment [1] was above 80% each time. In experiment [2], the mortality at 24 ppm is at least 80%.

For the molecule `CCSc1cc(C(F)(F)F)cnc1-c1nnc(-c2cc(C(F)(F)F)ccn2)n1CC` [Compound P64], the mortality at 400 ppm in experiment [4] and in experiment [3] was above 80% in each case.
